PubChem BioAssay AID1259407 (Chemical Carcinogenesis Research Information System (CCRIS), 2018)
Calls of active or inactive are those of the source. No rule for the calls is given here.

Test system: CCRIS mutagenicity, Ames/micronucleus/aberration tests
Assay: CCRIS mutagenicity studies
[1] = Test System: AMES SALMONELLA TYPHIMURIUM, Strain/Indicator: TA98, Metabolic Activation: NONE, Method: PREINCUBATION
[2] = Test System: AMES SALMONELLA TYPHIMURIUM, Strain/Indicator: TA98, Metabolic Activation: NONE, Method: STANDARD PLATE
[3] = Test System: AMES SALMONELLA TYPHIMURIUM, Strain/Indicator: TA100, Metabolic Activation: NONE, Method: STANDARD PLATE

Measured: mutagenic call

COC(=O)C1=C(C)NC(C)=C(C(=O)OC)C1c1ccccc1[N+](=O)[O-]
inactive: Test System: AMES SALMONELLA TYPHIMURIUM, Strain/Indicator: TA97, Metabolic Activation: HAMSTER, LIVER, S-9, AROCLOR 1254 (10 OR 30%), Method: PREINCUBATION inactive; negative | Test System: AMES SALMONELLA TYPHIMURIUM, Strain/Indicator: TA97, Metabolic Activation: NONE, Method: PREINCUBATION inactive; negative | Test System: AMES SALMONELLA TYPHIMURIUM, Strain/Indicator: TA97, Metabolic Activation: RAT, LIVER, S-9, AROCLOR 1254 (10 OR 30%), Method: PREINCUBATION inactive; negative | Test System: AMES SALMONELLA TYPHIMURIUM, Strain/Indicator: TA98, Metabolic Activation: HAMSTER, LIVER, S-9, AROCLOR 1254 (10 OR 30%), Method: PREINCUBATION inactive; negative | [1] inactive; negative | Test System: AMES SALMONELLA TYPHIMURIUM, Strain/Indicator: TA98, Metabolic Activation: RAT, LIVER, S-9, AROCLOR 1254 (10 OR 30%), Method: PREINCUBATION inactive; negative | Test System: AMES SALMONELLA TYPHIMURIUM, Strain/Indicator: TA100, Metabolic Activation: HAMSTER, LIVER, S-9, AROCLOR 1254 (10 OR 30%), Method: PREINCUBATION inactive; negative | Test System: AMES SALMONELLA TYPHIMURIUM, Strain/Indicator: TA100, Metabolic Activation: NONE, Method: PREINCUBATION inactive; negative | Test System: AMES SALMONELLA TYPHIMURIUM, Strain/Indicator: TA100, Metabolic Activation: RAT, LIVER, S-9, AROCLOR 1254 (10 OR 30%), Method: PREINCUBATION inactive; negative | Test System: AMES SALMONELLA TYPHIMURIUM, Strain/Indicator: TA1535, Metabolic Activation: HAMSTER, LIVER, S-9, AROCLOR 1254 (10 OR 30%), Method: PREINCUBATION inactive; negative | Test System: AMES SALMONELLA TYPHIMURIUM, Strain/Indicator: TA1535, Metabolic Activation: NONE, Method: PREINCUBATION inactive; negative | Test System: AMES SALMONELLA TYPHIMURIUM, Strain/Indicator: TA1535, Metabolic Activation: RAT, LIVER, S-9, AROCLOR 1254 (10 OR 30%), Method: PREINCUBATION inactive; negative

O=[N+]([O-])c1cccc2c1-c1cccc3cccc-2c13
active: [2] active; positive

O=[N+]([O-])c1ccc2c(c1)C(O)c1ccccc1-2 (centres undefined)
active: [1] active; positive | Test System: AMES SALMONELLA TYPHIMURIUM, Strain/Indicator: TA98, Metabolic Activation: S-9, Method: PREINCUBATION active; positive

COCCCN
inactive: Test System: AMES SALMONELLA TYPHIMURIUM, Strain/Indicator: TA98, Metabolic Activation: HAMSTER, LIVER, S-9, AROCLOR 1254, Method: STANDARD PLATE inactive; negative | [2] inactive; negative | Test System: AMES SALMONELLA TYPHIMURIUM, Strain/Indicator: TA98, Metabolic Activation: RAT, LIVER, S-9, AROCLOR 1254, Method: STANDARD PLATE inactive; negative | Test System: AMES SALMONELLA TYPHIMURIUM, Strain/Indicator: TA100, Metabolic Activation: HAMSTER, LIVER, S-9, AROCLOR 1254, Method: STANDARD PLATE inactive; negative | [3] inactive; negative | Test System: AMES SALMONELLA TYPHIMURIUM, Strain/Indicator: TA100, Metabolic Activation: RAT, LIVER, S-9, AROCLOR 1254, Method: STANDARD PLATE inactive; negative | Test System: AMES SALMONELLA TYPHIMURIUM, Strain/Indicator: TA1535, Metabolic Activation: HAMSTER, LIVER, S-9, AROCLOR 1254, Method: STANDARD PLATE inactive; negative | Test System: AMES SALMONELLA TYPHIMURIUM, Strain/Indicator: TA1535, Metabolic Activation: NONE, Method: STANDARD PLATE inactive; negative | Test System: AMES SALMONELLA TYPHIMURIUM, Strain/Indicator: TA1535, Metabolic Activation: RAT, LIVER, S-9, AROCLOR 1254, Method: STANDARD PLATE inactive; negative | Test System: AMES SALMONELLA TYPHIMURIUM, Strain/Indicator: TA1537, Metabolic Activation: HAMSTER, LIVER, S-9, AROCLOR 1254, Method: STANDARD PLATE inactive; negative | Test System: AMES SALMONELLA TYPHIMURIUM, Strain/Indicator: TA1537, Metabolic Activation: NONE, Method: STANDARD PLATE inactive; negative | Test System: AMES SALMONELLA TYPHIMURIUM, Strain/Indicator: TA1537, Metabolic Activation: RAT, LIVER, S-9, AROCLOR 1254, Method: STANDARD PLATE inactive; negative | Test System: AMES SALMONELLA TYPHIMURIUM, Strain/Indicator: TA1538, Metabolic Activation: HAMSTER, LIVER, S-9, AROCLOR 1254, Method: STANDARD PLATE inactive; negative | Test System: AMES SALMONELLA TYPHIMURIUM, Strain/Indicator: TA1538, Metabolic Activation: NONE, Method: STANDARD PLATE inactive; negative | Test System: AMES SALMONELLA TYPHIMURIUM, Strain/Indicator: TA1538, Metabolic Activation: RAT, LIVER, S-9, AROCLOR 1254, Method: STANDARD PLATE inactive; negative | Test System: Mouse lymphoma, Strain/Indicator: L5178Y (tk+/tk-), Metabolic Activation: None, Method: Suspension/plate inactive; negative | Test System: Mouse lymphoma, Strain/Indicator: L5178Y (tk+/tk-), Metabolic Activation: Rat, Liver, S-9, Aroclor 1254, Method: Suspension/plate inactive; negative

[N-]=[N+]=NC[C@@H](O)[C@H](O)[C@H](O)[C@@H](O)C(=O)O
active: [3] active; positive
inactive: [2] inactive; negative
